These results are taken from PubChem BioAssay (NCI).

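Compound exposure: 48 hours, 5 concentrations, 96-well plates. Abbreviation: GI50, concentration required for 50% inhibition of growth. TGI denotes the concentration required for complete inhibition of growth.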 A value given as a limit tells only on which side of the number the result lay.

Common to all, as to experiment: DTP human tumour cell line panel, 48 h
Experiment [1] has as its system A549 NSCLC.
For experiment [2], the system named is COLO 205 colon.
The subject of experiment [3] is MOLT-4 leukemia.
The test system of experiment [4] is SF-295 CNS.
Experiment [5] has as its system SF-539 CNS.
In experiment [6] the test system is SK-MEL-2 melanoma.
For experiment [7], the system named is SK-MEL-28 melanoma.
The subject of experiment [8] is U251 CNS.
In experiment [9] the test system is UACC-62 melanoma.
Experiment [10] concerns SNB-75 CNS.

In general, GI50 refers to the concentration at which growth is held to half of that of the control. As a reminder, the TGI is the concentration giving total growth inhibition. Turning to `C#CCOc1ccc2ncnc(Nc3ccc(NC(=O)C=C)cc3)c2c1`, the GI50 is over 100 µM in experiment [1]; 15.6 µM in experiment [2]; 28.4 µM in experiment [3]; over 100000 nM in experiment [4]; 9.76 µM in experiment [5]; over 100 µM in experiment [6]. Besides, the GI50 in [7] is 23.6 µM; in [8], 79.3 µM; in experiment [9], 47.3 µM. Also, the TGI was over 100 µM in [1]; 91.5 µM in experiment [2]; over 100 µM in [3]; over 100 µM in [4]; 39.6 µM in [5]; over 100 µM in [6]. For the same molecule, the TGI in experiment [7], in experiment [8] and in experiment [9] was over 100 µM in each case.

As to `CC(=O)NC(CC(C)C)C(=O)NC(Cc1ccccc1)C(=S)N1CCCC1` (centres undefined), the TGI in [1], in experiment [2], in experiment [3], in experiment [4], in [6] and in [7] was over 100 µM throughout. In addition, the total growth inhibition concentration (TGI) in experiment [10], in experiment [8] and in experiment [9] was over 100 µM in each case.

Turning to `Cc1ccc(S(=O)(=O)N/N=C(/c2nc3ccc([N+](=O)[O-])cc3[nH]c2=O)C(O)c2ccc(C(O)/C(=N\NS(=O)(=O)c3ccc(C)cc3)c3nc4ccc([N+](=O)[O-])cc4[nH]c3=O)cc2)cc1` (centres undefined), the TGI in experiment [1], in experiment [2], in experiment [3], in [5], in experiment [6] and in experiment [7] was over 100 µM in each case. Moreover, the total growth inhibition concentration (TGI) in experiment [10], in experiment [8] and in [9] was over 100 µM throughout.

Take `O=C(CC(Cl)=C(Cl)Cl)c1cccc(Cl)c1Cl`: the GI50 in experiment [1] is over 100 µM; in experiment [2], over 100 µM; in experiment [3], 24 µM; in experiment [5], 84.1 µM; in experiment [6], over 100 µM; in [7], over 100 µM. Also, the figures for the GI50 in [8] and in [9] were 46.3 µM and 52.4 µM, respectively. Besides, the TGI in [1], in experiment [2], in experiment [3], in [5], in [6] and in experiment [7] was over 100 µM throughout. Further, the TGI in experiment [8] and in experiment [9] was over 100 µM in each case.

Regarding `CC(C)(C)C(C#N)(C#N)c1ccc(C(C#N)(C#N)C(C)(C)C)nn1`, the concentration for total growth inhibition (TGI) in experiment [1], in [2], in experiment [3], in experiment [4], in [5] and in experiment [6] was over 100 µM each time. Also, the results for the TGI in experiment [7], in experiment [10] and in [9] were over 100 µM, 75.2 µM and over 100 µM, respectively.

Take `O=C(COc1cccc(/C=C2\CSc3ccccc3C2=O)c1)Nc1nccs1`: the GI50 is 5.73 µM in experiment [1]; 5.61 µM in experiment [2]; 2090 nM in [4]; 2.4 µM in [5]; 1.22 µM in experiment [6]; 3.75 µM in [7]. Also, the GI50 in experiment [10] was 1130 nM; in [8], 1.82 µM; in experiment [9], 1.48 µM. Further, the TGI in experiment [1] was found to be 18.3 µM; in [2] it was 18.9 µM; in experiment [4], 3.59 µM; in experiment [5] it was 13.3 µM; in experiment [6], 3.1 µM; in experiment [7], 12.4 µM. Further, the figures for the TGI in experiment [10], in experiment [8] and in experiment [9] were 12.5 µM, 3.21 µM and 3.12 µM, respectively.

Regarding `CC1=C(C(=O)Nc2cc(F)c(F)cc2F)C(c2ccc([N+](=O)[O-])cc2)C(C(=O)Nc2cc(F)c(F)cc2F)=C(C)N1`, the TGI in experiment [1], in experiment [2], in experiment [3], in experiment [4], in experiment [5] and in [6] was over 100 µM in each case. The TGI is over 100 µM in [7], 63 µM in [10] and over 100 µM in experiment [8].

As for `O=C(Nc1nc2c(ncn2C2OC(CO)C(O)C2O)c(=O)[nH]1)c1ccccc1` (centres undefined), the TGI in experiment [1], in [2], in experiment [4], in [5], in experiment [6] and in experiment [7] was over 100 µM each time. In addition, the TGI in experiment [10], in [8] and in [9] was over 100 µM throughout.

Regarding `COc1cc2c3c(n(C)c(=O)c2cc1OC)-c1ccc(C#N)cc1C3=O`, the GI50 is over 100 µM in experiment [1]; over 100 µM in experiment [2]; over 100 µM in experiment [3]; 73700 nM in experiment [4]; over 100 µM in [5]; over 100 µM in experiment [6]. Besides, the values for the GI50 in [7], in experiment [8] and in experiment [9] were over 100 µM, 84.9 µM and over 100 µM, respectively. The TGI in [1], in experiment [2], in experiment [3], in experiment [4], in [5] and in [6] was over 100 µM each time. For the same molecule, the TGI in experiment [7], in [8] and in experiment [9] was over 100 µM each time.

For the molecule `COc1cc2c(=O)[nH]c3cc([N+](=O)[O-])ccc3c2cc1[N+](=O)[O-]`, the GI50 in experiment [1] is 4.11 µM; in experiment [2] it was 4.11 µM; in experiment [3], 3.9 µM; in experiment [4], 6270 nM; in experiment [5], 4.65 µM; in experiment [6] it was 22.9 µM. Also, the GI50 is over 100 µM in [7], 2080 nM in [10] and 4.55 µM in experiment [9]. In addition, the TGI in experiment [1], in experiment [2], in experiment [3], in [4], in experiment [5] and in experiment [6] was over 100 µM in each case. The TGI was over 100 µM in experiment [7], 20 µM in experiment [10] and over 100 µM in [9].

As to `CC(=O)NNc1nc(C)c(C(=O)NNC(=O)C(=O)Nc2ccc(Cl)cc2Cl)s1`, the TGI in experiment [1] is over 100 µM; in [2], over 100 µM; in experiment [3], 57 µM; in [4], over 100 µM; in experiment [5] it was 99.5 µM; in experiment [6] it was over 100 µM. Also, the TGI is over 100 µM in [7], 82.6 µM in experiment [8] and 57.4 µM in [9].

In the case of `CCOc1ccc(NC(=O)CC2C(=O)Nc3ccccc3S2(=O)=O)cc1` (centres undefined), the TGI in experiment [1], in [2], in [3], in [4], in [5] and in experiment [6] was over 100 µM each time. The TGI was over 100 µM in experiment [7], 43.2 µM in experiment [10] and over 100 µM in experiment [8].

Take `CCSc1c2ccccc2c(-c2nc(F)nc(F)n2)n1CCc1ccccc1`: the TGI in experiment [1], in experiment [2], in [3], in [4], in experiment [5] and in [6] was over 100 µM each time. Besides, the total growth inhibition concentration (TGI) in experiment [7] and in experiment [8] was over 100 µM in each case.

Turning to `Nc1ncnc2c1ncn2C1CC(OCc2ccccc2[N+](=O)[O-])C(CO)O1` (centres undefined), the TGI in [1] is over 50 µM; in experiment [2], 16.9 µM; in [3], over 50 µM; in [4], over 50 µM; in experiment [5], over 50 µM; in experiment [6], over 50 µM. Besides, the TGI in experiment [7] and in [8] was over 50 µM each time.

With `CC1(c2ccc(Cl)cc2)C2C(=O)NC(=O)C1C(=O)NC2=O` (centres undefined), the TGI in experiment [1], in experiment [2], in experiment [3], in [4], in [5] and in experiment [6] was over 100 µM each time. The TGI in experiment [7], in [10] and in experiment [9] was over 100 µM each time.

Regarding `CCN1CCN(C(=O)[C@]23CCC(C)(C)C[C@@H]2C2=CC[C@@H]4[C@@]5(C)C/C(=C/c6ccncc6)C(=O)C(C)(C)[C@@H]5CC[C@@]4(C)[C@]2(C)CC3)CC1`, the GI50 is 1.66 µM in [1]; 1.64 µM in [2]; 1430 nM in [4]; 1.64 µM in experiment [5]; 1.73 µM in experiment [6]; 1.62 µM in experiment [7]. Also, the GI50 in [8] is 1.42 µM; in experiment [9], 1.46 µM. Also, the total growth inhibition concentration (TGI) in experiment [1] stood at 4.65 µM; in experiment [2] it was 3.64 µM; in [4], 2.76 µM; in experiment [5], 3.04 µM; in [6], 3.33 µM; in experiment [7] it was 3.03 µM. For the same molecule, the TGI in [8] was found to be 2.87 µM; in experiment [9] it was 2.82 µM.

On to `CCOC(=O)C1(C)CCCCC(=O)N1` (centres undefined), for which the TGI in experiment [1], in experiment [2], in experiment [4], in experiment [7], in [10] and in [8] was over 100 µM each time. The molecule further showed a concentration for total growth inhibition (TGI) in [9] of over 100 µM.

For the molecule `CN(CCCNC(=O)CCOCCOCCOCCNC(=O)Cc1ccc2ccc3cccc4ccc1c2c34)CCCNc1cc(-c2ccc3ccccc3c2)nc2ccccc12`, the GI50 in experiment [1] is 0.629 µM; in experiment [2] it was 0.436 µM; in [4], 1570 nM; in experiment [5], 0.526 µM; in experiment [6] it was 4.84 µM; in experiment [7], 0.191 µM. Moreover, the GI50 in experiment [10] was 510 nM; in experiment [8], 0.472 µM; in experiment [9] it was 1.12 µM. The TGI in experiment [1] amounted to 1.74 µM; in experiment [2], 0.902 µM; in experiment [4] it was 3.75 µM; in experiment [5], 0.99 µM; in experiment [6], 13.2 µM; in experiment [7], 0.347 µM. The figures for the TGI in experiment [10], in experiment [8] and in experiment [9] were 0.994 µM, 0.938 µM and 4.55 µM, respectively.

Take `CC(=O)C1=C(O)C2C3c4c[nH]c5cccc(c45)CC3C(C)(C)N2C1=O` (centres undefined): the TGI was over 100 µM in experiment [1]; over 100 µM in experiment [2]; over 100 µM in experiment [3]; over 100 µM in experiment [4]; 44.4 µM in experiment [5]; 44.6 µM in experiment [6]. For the same molecule, the TGI in experiment [7], in [8] and in experiment [9] was over 100 µM in each case.

In the case of `COc1cc2nc3cc([N+](=O)[O-])ccc3c(NCCNCC(C)(C)O)c2cc1OC`, the GI50 in [1] was 1.22 µM; in [2], 0.37 µM; in experiment [3], 0.354 µM; in [4], 517 nM; in experiment [5] it was 0.566 µM; in experiment [6], 0.432 µM. The GI50 in [10] was 608 nM; in experiment [8] it was 0.533 µM. Further, the TGI in [1] is 5.64 µM; in [2], 1.54 µM; in experiment [3], 10.7 µM; in experiment [4] it was 3.13 µM; in [5], 2.12 µM; in experiment [6], 1.75 µM. Besides, the total growth inhibition concentration (TGI) in [10] is 2.05 µM; in experiment [8] it was 2.31 µM.

As for `CCOC(=O)c1cnc2c(C)cccc2c1Nc1ccc(C(C)=O)cc1`, the GI50 in experiment [1] was 38.8 µM; in experiment [2], 17.5 µM; in experiment [3], 43.6 µM; in [4] it was 36200 nM; in experiment [5], 34.3 µM; in experiment [7], 50.2 µM. Also, the GI50 in experiment [10] was 15400 nM; in experiment [8], 63.8 µM; in experiment [9] it was 11.4 µM. The TGI in [1] is over 100 µM; in [2], 43.4 µM; in [3], over 100 µM; in experiment [4], over 100 µM; in [5] it was over 100 µM; in [7] it was over 100 µM. In addition, the TGI in experiment [10] was 51 µM; in [8], over 100 µM; in experiment [9] it was over 100 µM.

In the case of `O=S(=O)(c1cnccc1N1CCN(CCO)CC1)N1CCCC1`, the TGI in experiment [1], in experiment [2], in experiment [4], in experiment [5], in experiment [6] and in experiment [7] was over 100 µM in each case. Further, the TGI in [10], in experiment [8] and in experiment [9] was over 100 µM in each case.
